The values that follow come from US9527851B2, “Pyrrole six-membered heteroaryl ring derivative, preparation method thereof, and medicinal uses thereof” (Jiangsu Hengrui Medicine Co., Ltd., priority 2011, dated 2016).

One may read the AUC as concentration integrated over time. By half-life is commonly meant the time in which the quantity being followed falls by half. Broadly, the Cmax is the peak of the concentration-time curve.

The target in one data set is JAK1 kinase (Homo sapiens (Human), UniProt P23458). Nature of the data set: Assay for inhibiting JAK1 kinase (in vitro kinase assay, HRP anti-phosphotyrosine antibody/TMB absorbance). Format: biochemical. The following applies: 20 μM ATP, 50 minutes at room temperature; read-out: IC50 (JAK1/Bio). As for the experimental part:
In vitro activity of compounds of the present invention for inhibiting JAK1 kinase was determined by the following method.
IC50 values of test compounds was calculated from the data of the test compounds in inhibiting the activity of JAK1 kinase at different concentrations.

Data set [1] in a line: Pharmacokinetics assay in rats, intragastric administration, plasma by LC/MS/MS. Format: in vivo, Sprague-Dawley (SD) rats. The following applies: both sexes, Sprague-Dawley, rat, plasma, po, SD rats, 10 mg/kg. How it is done:
Rats were used as test animals. […] The pharmacokinetic behavior of the compounds of the present invention was studied and evaluated in rats.
56 Healthy adult Sprague-Dawley (SD) rats, half male and half female, purchased from SINO-BRITSH SIPPR/BK LAB.
The appropriate amount of test compounds were weighed and mixed with 1.0 mL of dimethyl sulfoxide to prepare a 1.0 mg/mL suspension.
After an overnight fast, SD rats were administered intragastrically at a dose of 10.0 mg/kg and an administration volume of 10 mL/kg.
The plasma samples were stored at −20° C. The rats were fed 2 hours after administration.
Content determination of the test compounds in rat plasma after intragastrically administering at different concentrations: 50 μL of rat plasmas taken at various time points after administration were mixed with 50 μL of internal standard solution and 100 μL of methanol and mixed for 3 minutes by a vortexer. The mixture was centrifuged for 10 minutes at 13,500 rpm. 10 μL of the supernatant was taken from the plasma sample and analyzed by LC-MS/MS.
Pharmacokinetic Parameters of the compounds of the present invention were shown as follows: […]

The next data set deals with JAK2 kinase (Homo sapiens (Human), UniProt O60674). Nature of the data set: Assay for inhibiting JAK2 kinase (in vitro kinase assay, HRP anti-phosphotyrosine antibody/TMB absorbance). The following applies: 20 μM ATP, 50 minutes at room temperature; read-out: IC50 (JAK2/Bio). The class given is biochemical. As for the experimental part:
In vitro activity of compounds of the present invention for inhibiting JAK2 kinase was determined by the following method.

Chain of JAK1 kinase (P23458 whole entry): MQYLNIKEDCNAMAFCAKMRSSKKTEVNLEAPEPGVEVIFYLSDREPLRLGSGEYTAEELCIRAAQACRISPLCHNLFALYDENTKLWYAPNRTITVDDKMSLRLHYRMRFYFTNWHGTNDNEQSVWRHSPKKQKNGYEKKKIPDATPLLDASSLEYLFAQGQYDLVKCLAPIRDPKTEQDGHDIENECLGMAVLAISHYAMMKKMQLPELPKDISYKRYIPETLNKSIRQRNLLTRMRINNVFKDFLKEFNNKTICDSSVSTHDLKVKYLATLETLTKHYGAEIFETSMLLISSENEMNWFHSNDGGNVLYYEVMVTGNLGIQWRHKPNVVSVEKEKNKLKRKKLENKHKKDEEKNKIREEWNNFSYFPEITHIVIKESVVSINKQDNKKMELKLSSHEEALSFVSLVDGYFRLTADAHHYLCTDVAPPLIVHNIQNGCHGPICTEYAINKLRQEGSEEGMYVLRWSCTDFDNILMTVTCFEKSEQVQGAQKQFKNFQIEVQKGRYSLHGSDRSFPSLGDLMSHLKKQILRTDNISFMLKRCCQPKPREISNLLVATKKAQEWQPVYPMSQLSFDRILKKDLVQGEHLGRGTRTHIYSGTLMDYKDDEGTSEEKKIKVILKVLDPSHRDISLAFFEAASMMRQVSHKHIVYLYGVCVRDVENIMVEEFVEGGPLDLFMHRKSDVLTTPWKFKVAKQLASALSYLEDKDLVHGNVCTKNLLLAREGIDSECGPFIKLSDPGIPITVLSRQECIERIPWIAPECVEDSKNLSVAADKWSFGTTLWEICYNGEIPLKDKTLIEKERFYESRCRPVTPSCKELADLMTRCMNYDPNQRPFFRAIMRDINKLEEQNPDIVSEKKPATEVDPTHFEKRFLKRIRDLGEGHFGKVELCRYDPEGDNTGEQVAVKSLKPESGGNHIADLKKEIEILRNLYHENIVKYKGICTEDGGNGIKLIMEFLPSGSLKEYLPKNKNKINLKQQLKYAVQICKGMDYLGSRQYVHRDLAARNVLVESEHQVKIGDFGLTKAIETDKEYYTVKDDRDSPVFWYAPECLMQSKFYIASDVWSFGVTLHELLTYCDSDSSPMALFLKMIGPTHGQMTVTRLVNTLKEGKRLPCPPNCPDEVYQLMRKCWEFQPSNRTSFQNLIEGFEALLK
Chain of JAK2 kinase (O60674 whole entry): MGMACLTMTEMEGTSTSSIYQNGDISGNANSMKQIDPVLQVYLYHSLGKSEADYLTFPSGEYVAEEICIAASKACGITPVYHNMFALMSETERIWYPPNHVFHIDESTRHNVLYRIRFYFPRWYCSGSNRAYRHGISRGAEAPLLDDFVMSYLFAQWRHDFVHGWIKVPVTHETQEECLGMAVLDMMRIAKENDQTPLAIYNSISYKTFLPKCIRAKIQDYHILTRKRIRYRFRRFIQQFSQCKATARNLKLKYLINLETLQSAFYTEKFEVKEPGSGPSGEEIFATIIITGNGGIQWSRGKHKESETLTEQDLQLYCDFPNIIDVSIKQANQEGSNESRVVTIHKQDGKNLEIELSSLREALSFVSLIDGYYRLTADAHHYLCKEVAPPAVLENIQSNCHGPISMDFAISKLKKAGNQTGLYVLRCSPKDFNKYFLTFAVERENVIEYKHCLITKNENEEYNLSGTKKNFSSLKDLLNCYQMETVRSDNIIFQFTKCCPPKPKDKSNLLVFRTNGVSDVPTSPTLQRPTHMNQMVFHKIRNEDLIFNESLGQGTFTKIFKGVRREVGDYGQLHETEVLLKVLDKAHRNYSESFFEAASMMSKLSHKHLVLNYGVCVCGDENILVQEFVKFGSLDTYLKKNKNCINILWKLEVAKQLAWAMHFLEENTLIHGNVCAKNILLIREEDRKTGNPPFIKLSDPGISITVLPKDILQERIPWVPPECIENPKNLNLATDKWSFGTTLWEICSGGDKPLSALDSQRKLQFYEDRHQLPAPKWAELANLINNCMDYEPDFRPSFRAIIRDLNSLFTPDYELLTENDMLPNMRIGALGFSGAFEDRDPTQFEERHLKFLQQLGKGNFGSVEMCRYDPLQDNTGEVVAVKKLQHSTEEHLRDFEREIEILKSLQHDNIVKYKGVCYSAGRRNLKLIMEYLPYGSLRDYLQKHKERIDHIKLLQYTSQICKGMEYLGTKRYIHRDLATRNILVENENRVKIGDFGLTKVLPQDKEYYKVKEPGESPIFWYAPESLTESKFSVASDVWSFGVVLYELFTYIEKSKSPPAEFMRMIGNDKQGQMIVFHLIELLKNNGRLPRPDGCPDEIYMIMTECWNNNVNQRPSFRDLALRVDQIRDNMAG

As to `C[C@H](O)C(=O)N1C[C@H]2C[C@H](N(C)c3ncnc4[nH]ccc34)C[C@H]2C1` [Example 17, (S)-2-Hydroxy-1-((3aR,5R,6aS)-5-(methyl(7H-pyrrolo[2,3-d]pyrimidin-4-yl)amino)hexahydrocyclopenta[c]pyrrol-2(1H)-yl)propan-1-one], the IC50 at JAK1 kinase worked out at 0.0002 µM. Further, in data set [1] (read-out: Apparent Distribution Volume Vz/F), the Vd/F came to 6.2 ± 1.69 L/kg. The AUC in data set [1] (read-out: Area Under Curve AUC) came to 4.76 ± 1.68 µg·h/mL. In addition, the CL/F in data set [1] (read-out: Clearance CL/F) amounted to 2.32 ± 0.822 L/h/kg. In addition, the half-life in data set [1] (read-out: Half-Life t½ (converted)) was 2.03 ± 0.82 h. Moreover, the Cmax in data set [1] (read-out: Plasma Conc. Cmax) was 1.48 ± 0.177 µg/mL.

As to `COC(=O)CN1C[C@H]2C[C@H](N(C)c3ncnc4[nH]ccc34)C[C@H]2C1` [Example 24, methyl 2-((3aR,5S,6aS)-5-(methyl(7H-pyrrolo[2,3-d]pyrimidin-4-yl)amino)hexahydrocyclopenta[c]pyrrol-2(1H)-yl)acetate], the IC50 at JAK1 kinase is 0.013 µM; at JAK2 kinase it was 0.077 µM. On to `COC(=O)N1CC[C@H]2CC(N(C)c3ncnc4[nH]ccc34)C[C@H]2C1` (stereo partly drawn) [Example 36, (4aS,7aR)-Methyl 6-(methyl(7H-pyrrolo[2,3-d]pyrimidin-4-yl)amino) hexahydro-1H-cyclopenta[c]pyridine-2(3H)-carboxylate], for which the IC50 is 0.025 µM on JAK1 kinase and 0.075 µM on JAK2 kinase. As to `CN(c1ncnc2[nH]ccc12)C1C[C@@H]2CCN(C(=O)CO)C[C@@H]2C1` (stereo partly drawn) [Example 37, 2-Hydroxy-1-((4aS,7aR)-6-(methyl(7H-pyrrolo[2,3-d]pyrimidin-4-yl)amino)hexahydro-1H-cyclopenta[c]pyridin-2(3H,4H,4aH,5H,6H,7H,7aH)-yl)ethanone], the IC50 turned out to be 0.05 µM at JAK1 kinase and 0.072 µM on JAK2 kinase. On to `COc1nsc(NC(=O)N2CC[C@H]3CC(N(C)c4ncnc5[nH]ccc45)C[C@H]3C2)n1` (stereo partly drawn) [Example 38, (4aS,7aR)—N-(3-Methoxy-1,2,4-thiadiazol-5-yl)-6-(methyl(7H-pyrrolo[2,3-d]pyrimidin-4-yl)amino)hexahydro-1H-cyclopenta[c]pyridine-2(3H)-carboxamide], for which, at JAK2 kinase, the IC50 was 0.007 µM.

With `CN(c1ncnc2[nH]ccc12)C1C[C@@H]2CCN(C(=O)CC#N)C[C@@H]2C1` (stereo partly drawn) [Example 39, 3-((4aS,7aR)-6-(Methyl(7H-pyrrolo[2,3-d]pyrimidin-4-yl)amino)hexahydro-1H-cyclopenta[c]pyridin-2(3H,4H,4aH,5H,6H,7H,7aH)-yl)-3-oxopropanenitrile], the IC50 at JAK1 kinase was determined as 0.034 µM; on JAK2 kinase it was 0.113 µM. Turning to `Cc1noc(N2C[C@H]3C[C@H](N(C)c4ncnc5[nH]ccc45)C[C@H]3C2)n1` [Example 61, N-methyl-N-((3aR,5S,6aS)-2-(3-methyl-1,2,4-oxadiazol-5-yl)octahydrocyclopenta[c]pyrrol-5-yl)-7H-pyrrolo[2,3-d]pyrimidin-4-amine], the IC50 was 0.128 µM on JAK1 kinase and 0.025 µM on JAK2 kinase. With `Cc1nsc(N2C[C@H]3C[C@H](N(C)c4ncnc5[nH]ccc45)C[C@H]3C2)n1` [Example 65, N-methyl-N-((3aR,5S,6aS)-2-(3-methyl-1,2,4-thiadiazol-5-yl)octahydrocyclopenta[c]pyrrol-5-yl)-7H-pyrrolo[2,3-d]pyrimidin-4-amine], the IC50 at JAK2 kinase was determined as 0.179 µM. Take `CN(c1ncnc2[nH]ccc12)[C@@H]1C[C@@H]2CN(CCC#N)C[C@@H]2C1` [Example 68, 3-((3aR,5R,6aS)-5-(methyl(7H-pyrrolo[2,3-d]pyrimidin-4-yl)amino)hexahydrocyclopenta[c]pyrrol-2(1H)-yl)propanenitrile]: the IC50 came to 0.017 µM on JAK1 kinase and 0.018 µM on JAK2 kinase.

`CN(c1ncnc2[nH]ccc12)[C@@H]1C[C@@H]2CN(C(=O)Nc3nncs3)C[C@@H]2C1` [Example 73, (3aR,5R,6aS)-5-(methyl(7H-pyrrolo[2,3-d]pyrimidin-4-yl)amino)-N-(1,3,4-thiadiazol-2-yl)hexahydrocyclopenta[c]pyrrole-2(1H)-carboxamide]: the IC50 at JAK1 kinase is 0.075 µM; on JAK2 kinase, 0.047 µM.

Take `COc1nsc(NC(=O)N2C[C@H]3C[C@@H](N(C)c4ncnc5[nH]ccc45)C[C@H]3C2)n1` [Example 74, (3aR,5R,6aS)-N-(3-methoxy-1,2,4-thiadiazol-5-yl)-5-(methyl(7H-pyrrolo[2,3-d]pyrimidin-4-yl)amino)hexahydrocyclopenta[c]pyrrole-2(1H)-carboxamide]: the figures for the IC50 on JAK1 kinase and at JAK2 kinase were 0.004 µM and 0.056 µM, respectively. As for `CN(c1ncnc2[nH]ccc12)[C@@H]1C[C@@H]2CN(C(=O)CCC#N)C[C@@H]2C1` [Example 75, 4-((3aR,5R,6aS)-5-(methyl(7H-pyrrolo[2,3-d]pyrimidin-4-yl)amino)hexahydrocyclopenta[c]pyrrol-2(1H)-yl)-4-oxobutanenitrile], the IC50 was determined as 0.046 µM at JAK1 kinase and 0.156 µM on JAK2 kinase.

In the case of `CN(c1ncnc2[nH]ccc12)[C@H]1C[C@@H]2CN(C(=O)Nc3nncs3)C[C@@H]2C1` [Example 86, (3aR,5S,6aS)-5-(methyl(7H-pyrrolo[2,3-d]pyrimidin-4-yl)amino)-N-(1,3,4-thiadiazol-2-yl)hexahydrocyclopenta[c]pyrrole-2(1H)-carboxamide], the IC50 on JAK1 kinase worked out at 0.01 µM; on JAK2 kinase, 0.052 µM. For the molecule `CN(c1ncnc2[nH]ccc12)[C@H]1C[C@@H]2CN(C(=O)[C@H](O)CO)C[C@@H]2C1` [Example 92, (R)-2,3-dihydroxy-1-((3aR,5S,6aS)-5-(methyl(7H-pyrrolo[2,3-d]pyrimidin-4-yl)amino)hexahydrocyclopenta[c]pyrrol-2(1H)-yl)propan-1-one], the results for the IC50 at JAK1 kinase and on JAK2 kinase were 0.131 µM and 0.203 µM, respectively. For `CN(c1ncnc2[nH]ccc12)[C@H]1C[C@@H]2CN(C(=O)Nc3ccn(C)n3)C[C@@H]2C1` [Example 104, (3aR,5S,6aS)-5-(methyl(7H-pyrrolo[2,3-d]pyrimidin-4-yl)amino)-N-(1-methyl-1H-pyrazol-3-yl)hexahydrocyclopenta[c]pyrrole-2(1H)-carboxamide], on JAK1 kinase, the IC50 worked out at 0.109 µM. In the case of `COc1cncc(NC(=O)N2C[C@H]3C[C@H](N(C)c4ncnc5[nH]ccc45)C[C@H]3C2)c1` [Example 109, (3aR,5S,6aS)-N-(5-methoxypyridin-3-yl)-5-(methyl(7H-pyrrolo[2,3-d]pyrimidin-4-yl)amino)hexahydrocyclopenta[c]pyrrole-2(1H)-carboxamide], at JAK1 kinase, the IC50 was 0.015 µM. For `Cc1cnc(NC(=O)N2C[C@H]3C[C@H](N(C)c4ncnc5[nH]ccc45)C[C@H]3C2)s1` [Example 117, (3aR,5S,6aS)-5-(methyl(7H-pyrrolo[2,3-d]pyrimidin-4-yl)amino)-N-(5-methylthiazol-2-yl)hexahydrocyclopenta[c]pyrrole-2(1H)-carboxamide], the IC50 at JAK1 kinase was determined as 0.095 µM. Consider `Cc1cc(NC(=O)N2C[C@H]3C[C@H](N(C)c4ncnc5[nH]ccc45)C[C@H]3C2)sn1` [Example 119, (3aR,5S,6aS)-5-(methyl(7H-pyrrolo[2,3-d]pyrimidin-4-yl)amino)-N-(3-methylisothiazol-5-yl)hexahydrocyclopenta[c]pyrrole-2(1H)-carboxamide], for which the IC50 on JAK1 kinase was found to be 0.048 µM. Take `Cc1ncc(NC(=O)N2C[C@H]3C[C@H](N(C)c4ncnc5[nH]ccc45)C[C@H]3C2)s1` [Example 124, (3aR,5S,6aS)-5-(methyl(7H-pyrrolo[2,3-d]pyrimidin-4-yl)amino)-N-(2-methylthiazol-5-yl)hexahydrocyclopenta[c]pyrrole-2(1H)-carboxamide]: the IC50 at JAK1 kinase turned out to be 0.119 µM. Turning to `COC(=O)CN1C[C@@H]2[C@H](C1)[C@H]2CN(C)c1ncnc2[nH]ccc12` [Example 134, methyl 2-((1R,5S,6R)-6-((methyl(7H-pyrrolo[2,3-d]pyrimidin-4-yl)amino)methyl)-3-azabicyclo[3.1.0]hexan-3-yl)acetate], the IC50 on JAK2 kinase amounted to 0.06 µM. In the case of `CN(C[C@H]1[C@@H]2CN(C(=O)C3CC3)C[C@@H]21)c1ncnc2[nH]ccc12` [Example 135, cyclopropyl((1R,5S,6S)-6-((methyl(7H-pyrrolo[2,3-d]pyrimidin-4-yl)amino)methyl)-3-azabicyclo[3.1.0]hexan-3-yl)methanone], the IC50 on JAK2 kinase is 0.002 µM. In the case of `CN(c1ncnc2[nH]ccc12)[C@H]1C[C@@H]2CN(C(=O)Nc3nc(O)ns3)C[C@@H]2C1` [Example 156, (3aR,5S,6aS)-N-(3-hydroxy-1,2,4-thiadiazol-5-yl)-5-(methyl(7H-pyrrolo[2,3-d]pyrimidin-4-yl)amino)hexahydrocyclopenta[c]pyrrole-2(1H)-carboxamide], the IC50 at JAK1 kinase stood at 0.171 µM.
